Where “and” joins values, the source holds several entries; their conditions need not be identical. Equal values may be shown once. Where a name gives a salt, the structure may show the parent alone.

In the Bradley open melting point set (2014) one finds melting point data, which are given here for 87 compounds.

Broadly, the melting point is the temperature of the solid-liquid transition. `ClCC(Cl)(Cl)Cl` [1,1,1,2-Tetrachloroethane] returned a melting point of -70 °C. Take `C=Cc1ccc(C(C)=O)cc1` [p-acetylstyrene]: the melting point is 37 °C. As for `CN(C)c1ccc(C=O)cc1` [4-dimethylaminobenzaldehyde], the figure is 74.5 °C; as for `CCCCCCCCCCCC(C)=O` [2-tridecanone], 30 °C; as for `N#Cc1c(Cl)cccc1Cl` [2,6-dichlorobenzonitrile], 145 °C. With `O=C(O)c1cc(Cl)ccc1/N=N/C1SC(=S)NC1=O` (configuration not stated), the melting point came out at 211 °C. As for `CCC1(c2ccccc2)C(=O)NCNC1=O` [Primidone], the figure is 282 °C. As for `CC1=CC(=O)CC1` [3-methyl-2-cyclopenten-1-one], the figure is 2 °C; as for `CCCCC=O` [Pentanal], -91.5 °C. As for `CCOC(=O)C(C#N)=Cc1ccccc1` [Ethyl 2-Cyano-3-Phenylacrylate], the figure is 49 °C; as for `CN1CC(Br)C(=O)NC1=O` (configuration not stated) [5-bromo-1-methyldihydropyrimidine-2,4(1H,3H)-dione], 149 °C. Regarding `O=C1CCc2ccc(F)cc21` [6-fluoro-1-indanone], the melting point is 58 °C. As for `O=C(NCCCCc1ccccc1)c1cc([N+](=O)[O-])cc([N+](=O)[O-])c1` [benzamide, 3,5-dinitro-N-(4-phenylbutyl)-], the figure is 166 °C; as for `N#Cc1cc(C(F)(F)F)ccc1Cl` [2-chloro-5-(trifluoromethyl)benzonitrile], 39 °C; as for `Oc1c(Cl)cccc1Cl` [2,6-Dichlorophenol], 68.5 °C. As for `CCN(CC)CCSC(=O)N(c1ccccc1)c1ccccc1` [phencarbamide], the figure is 48 °C; as for `C=C(c1ccccc1)c1ccccc1` [1,1-diphenylethene], 8 °C; as for `Cc1c(C)c(C)c(C)c(C)c1C` [hexamethylbenzene], 165 °C. As for `COc1cc(OC)cc(C(C)=O)c1` [3,5-dimethoxyacetophenone], the figure is 34 °C. As for `O=c1cc(-c2ccccc2)[nH]o1` [3-phenyl-5-isoxazolone], the melting point was 152 °C.

In turn, `CC[C@@H]1OC(=O)[C@H](C)C(=O)[C@H](C)[C@@H](O[C@@H]2O[C@H](C)C[C@H](N(C)C)[C@H]2O)[C@](C)(OC)C[C@@H](C)C(=O)[C@H](C)[C@H]2N(CCCCn3cnc(-c4cccnc4)c3)C(=O)O[C@@]12C` [Telithromycin] displayed a melting point of 182 °C. As for `Cc1n[nH]c(=S)[nH]c1=O` [6-aza-2-thiothymine], the figure is 220 °C. `Clc1c2ccccc2cc2ccccc12` [9-chloroanthracene]: the melting point is 104 °C. `CSc1nc(Cl)cc(N2CCCCC2)n1` [4-Chloro-2-(methylsulfanyl)-6-(piperidin-1-yl)pyrimidine] came in with a melting point of 83.8 °C. As for `Oc1cccc(Cl)c1Cl` [2,3-dichlorophenol], the figure is 59 °C. For `C[C@]12CC[C@@H]3c4ccc(O)cc4CC[C@H]3[C@@H]1CC[C@@H]2O` [beta-estradiol], the melting point was found to be 177 °C.

`Cc1ccco1` [2-methylfuran]: the melting point is -89 °C. As for `Cc1cc(C)nc(NS(=O)(=O)c2ccc(N)cc2)n1` [Sulfamethazine], the figure is 198 °C; as for `Brc1cccc2cc[nH]c12` [7-bromoindole], 43 °C. On to `O=C(O)c1c(P(c2ccccc2)c2ccccc2)ccc2ccccc12` [2-diphenylphosphino-1-naphthoic acid], for which the melting point stood at 191 °C. As for `O=C(O)c1nn(Cc2ccc(Cl)cc2Cl)c2ccccc12` [lonidamine], the figure is 207 °C.

`OB(O)c1ccc(-c2ccccc2)c(F)c1` [2-fluorobiphenyl-4-boronic acid] gave a melting point of 246 °C. As for `CC(C)CCCC(C)C1CCC2C3CC=C4CC(OCOc5ccc(Cl)cc5)CCC4(C)C3CCC12C` (configuration not stated) [3-[(4-chlorophenoxy)methoxy]cholest-5-ene], the melting point was 145 °C. As for `c1ccc([C@H]2CN3CCSC3=N2)cc1` [Levamisole], the figure is 264 °C. As for `COC(=O)C(=O)OC` [dimethyl oxalate], the figure is 52 °C; as for `CC(C)NCC(O)COc1cccc2ccccc12` (configuration not stated) [propranolol], 129 °C. As for `c1ccc2c(c1)CCC2` [indane], the figure is -51 °C; as for `OCCCCCO` [1,5-pentanediol], -16 °C.

In turn, `O=C(O)c1ccc(C(=O)OC(=O)c2ccc(C(=O)O)cc2C(=O)O)c(C(=O)O)c1` [4,4'-(Oxydicarbonyl)diisophthalic acid] yielded a melting point of 165 °C. As for `Cc1cc2nsnc2cc1C` [5,6-dimethyl-2,1,3-benzothiadiazole], the figure is 84 °C; as for `O=[N+]([O-])c1cc[n+]([O-])c(Cl)c1F` [2-chloro-3-fluoro-4-nitropyridine n-oxide], 177 °C. As for `C[C@]12CCC(=O)C=C1CC[C@@H]1[C@@H]2[C@@H](O)C[C@@]2(C)[C@H]1CC[C@]2(O)C(=O)CO` [(11beta)-11,17,21-Trihydroxypregn-4-ene-3,20-dione], the figure is 220 °C; as for `CCOP(=S)(OCC)Oc1nc(Cl)c(Cl)cc1Cl` [O,O-Diethyl O-(3,5,6-trichloropyridin-2-yl) phosphorothioate], 42.5 °C; as for `Cc1cccc(C)c1N` [2,6-dimethylaniline], 12 °C. `CCCCCCBr` [1-bromohexane] showed a melting point of -85 °C. As for `N#CC(c1ccccc1[N+](=O)[O-])c1ccccc1[N+](=O)[O-]` [bis(2-nitrophenyl)acetonitrile], the figure is 110 °C; as for `NNC(=O)COc1ccc(Cl)cc1Cl` [2,4-dichlorophenoxyacetic acid hydrazide], 151 °C. As for `CC(C)O` [Isopropyl Alcohol], the figure is -89.5 °C; as for `CCCCCCCCCCS(=O)(=O)Cl` [1-decanesulfonyl chloride], 32 °C. For the compound `O=C(O)C1(C(F)(F)F)CCCCC1` [1-(trifluoromethyl)cyclohexanecarboxylic acid], the melting point was 70 °C. In turn, `CC(=O)CC(=O)OC(C)C` [isopropyl acetoacetate] gave a melting point of -27 °C. The compound `C#CC1(O)CCC2C3CC=C4C=C(C(C)(C)C(=O)O)CCC4(C)C3CCC21C` (configuration not stated) gave a melting point of 259 °C. As for `CC(=O)OCCC(C)C` [isopentyl acetate], the figure is -78 °C. Turning to `CC1=CC(=O)CC(C)(C)C1` [3,5,5-Trimethylcyclohex-2-en-1-one], the melting point is -8 °C. As for `CCCCNc1cc(C(=O)O)cc(S(N)(=O)=O)c1Oc1ccccc1` [Bumetanide], the figure is 230 °C; as for `CC(C)(C)NCC(O)COc1cccc2c1CC(O)C(O)C2` (configuration not stated), 124 °C; as for `CC(=O)O` [Acetic acid], 16.7 °C. As for `O=C(O)c1cc([N+](=O)[O-])cc([N+](=O)[O-])c1O` [3,5-dinitrosalicylic acid], the figure is 171 °C. As for `CC(=O)Nc1ccc(O)cc1` [acetaminophen], the figure is 170 °C.

`O=C(CCCN1CCC(n2c(=O)[nH]c3ccccc32)CC1)c1ccc(F)cc1` [benperidol] showed a melting point of 171 °C. As for `O=[N+]([O-])c1ccc(O)cc1` [4-nitrophenol], the figure is 112 °C and 113 °C.

For `CNCC(O)c1ccccc1` (configuration not stated) [2-(Methylamino)-1-phenylethanol], the melting point is 75 °C.

For the compound `Cc1ccc(C(N)=O)cc1C` [3,4-dimethylbenzamide], the melting point came out at 102 °C.

Take `COc1cc(C(=O)O)cc(OC)c1OC` [3,4,5-trimethoxybenzoic acid]: the melting point amounted to 170 °C.

On to `Cc1cccc2c1Cc1ccccc1-2` [1-methylfluorene], for which the melting point was 85 °C. As for `COC(=O)c1cccc(C(=O)OC)c1` [dimethyl isophthalate], the figure is 69 °C; as for `Cn1c2ccccc2c2ccccc21` [9-Methyl-9H-carbazole], 91 °C.

With `O=C1CCCCC1c1ccccc1` (configuration not stated) [2-phenylcyclohexanone], the melting point is 58 °C.

As to `COc1ccc2c(c1)CC1(CCC(O)(c3ccc(C(C)(C)C)cc3)CC1)C2O` (configuration not stated), the melting point was 104 °C. For the compound `O=Cc1ccccc1O` [salicylaldehyde], the melting point is -7 °C. `CC(=O)N[C@@H](CS)C(=O)O` [N-acetyl-l-cysteine] displayed a melting point of 110 °C. As for `CCS` [ethanethiol], the figure is -148 °C; as for `O=C(O)CCCCCCCBr` [8-bromooctanoic acid], 39 °C; as for `O=C(O)c1cccc(I)c1` [3-iodobenzoic acid], 187 °C. `Nc1cccc2c(=O)[nH][nH]c(=O)c12` [5-Amino-2,3-dihydrophthalazine-1,4-dione]: the melting point was determined as 319 °C.

For the compound `c1ccc2c(c1)c1ccccc1c1ccccc21` [Triphenylene], the melting point is 199 °C. As for `O=[N+]([O-])c1ccc(Cc2ccccn2)c([N+](=O)[O-])c1` [2-(2,4-Dinitrobenzyl)pyridine], the figure is 92 °C.

Take `CCC(C)c1ccccc1O` (configuration not stated) [2-sec-butylphenol]: the melting point turned out to be 10 °C.

As to `COCC(=O)N(c1c(C)cccc1C)C(C)C(=O)OC` (configuration not stated) [Metalaxyl], the melting point came to 72 °C. Take `O=Cc1ccc([N+](=O)[O-])cc1` [p-nitrobenzaldehyde]: the melting point is 108 °C. As for `CN(C)CCCN1c2ccccc2Sc2ccc(Cl)cc21` [chlorpromazine], the figure is 57 °C; as for `Oc1cccc(Cl)c1Cl` [2,3-Dichlorophenol], 56 °C. The compound `CC(C)C(N)=O` [isobutyramide] returned a melting point of 129 °C. As for `O=C(O)c1cc(I)ccc1Cl` [2-chloro-5-iodobenzoic acid], the figure is 159 °C. As for `Cc1ccc(C=O)cc1` [p-tolualdehyde], the figure is -6 °C. On to `C=C[C@H]1C[N@@]2CC[C@H]1C[C@@H]2[C@@H](O)c1ccnc2ccc(OC)cc12` [quinidine], for which the melting point amounted to 174 °C.

As to `CC1CCCCC1` [methylcyclohexane], the melting point was -126 °C.
